Assay results: patent publication US10035800B2 (AbbVie Inc., priority 2013, dated 2018)

What was measured:
[1] = test system: breast cancer cell line MX-1; test: MX-1 cell line proliferation assay; type: cell-based; conditions: MX-1 cells, 3-day proliferation assay, Cell Titer Glo; read-out: Cellular proliferation: EC50
Summary of the method: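 MX-1 cells at 5000/well, in RPMI 1640 with 10% FBS, were exposed to compounds for 3 days. Final concentrations ranged 3 μM–0.1 nM or 1 μM–0.03 nM, in 3-fold steps. Cell Titer Glo luminescence was normalized to DMSO and fitted sigmoidally for EC50; overall MSR 2.1.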

[2] = test system: IL-6 (Interleukin-6) production; test: LPS (lipopolysaccharide) induced IL-6 production mouse assay; type: in vivo, mice; conditions: oral administration 1 h before LPS 2.5 mg/kg ip, serum 2 h after LPS, p < 0.05 vs vehicle
Experimental: LPS (Lipopolysaccharide) Induced IL-6 Production Mouse Assay
Compounds of the Examples listed in Table 2 were assayed for their ability to inhibit LPS (lipopolysaccharide) induced IL-6 (Interleukin-6) production in mice. Fox Chase SCID® female mice (Charles Rivers Labs, 5 per group) or CD1 female mice (5 per group) received an intraperitoneal challenge of lipopolysaccharide (2.5 mg/kg, L2630 E. coli 0111:B4) one hour after oral administration of compounds. Mice were euthanized 2 hours after lipopolysaccharide injection, blood was removed by cardiac puncture, and then the serum harvested from the blood samples was frozen at −80° C. On the day of the assay the serum samples were brought to room temperature and then diluted 1:20 in phosphate-buffered saline containing 2% bovine serum albumin. Interleukin-6 measurements were performed using a cytokine assay from Meso Scale Discovery (Gaithersburg, Md.) for mouse serum analysis according to the manufacturer's protocol and read on a SECTOR Imager 6000 (Meso Scale Discovery, Gaithersburg, Md.) instrument. Statistical analysis was performed using Prism software (version 5.0) incorporating Dunnett's one way ANOVA. The IL-6 mean and standard deviation of the group of vehicle treated animals were compared with the IL-6 mean and standard deviation of the group treated with drug. A p value <0.05 means that there is less than a 5% probability that the mean values in the two groups are equal.

BRD4 (BDII_E352-M457) = molecular target: T1, BRD4 (BDII_E352-M457) (Homo sapiens, UniProt O60885); test: TR-FRET bromodomain binding assay, second bromodomain of BRD4; conditions: 30 nM probe
T1 construct: protocol; made in house
Summary of the method: (§1)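 Compound dilutions are mixed with His-tagged BRD4 bromodomain (8 nM), europium anti-His antibody (1 nM) and Alexa647 probe (BDI 100 nM; BDII 30 nM) in pH 6.0 buffer containing 2% DMSO. After equilibrating one hour at room temperature, TR-FRET is measured; percent inhibition is fitted to obtain IC50, from which Ki is calculated.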

BRD4 (BDI_K57-E168) = molecular target: T2, BRD4 (BDI_K57-E168) (Homo sapiens, UniProt O60885); test: TR-FRET bromodomain binding assay, first bromodomain of BRD4; conditions: 100 nM probe
T2 construct: BD1: amino acids K57-E168; made in house
Summary of the method: as §1

[3] = TR-FRET assay protocol G (compound 0.92 μM-15 pM)
[4] = TR-FRET assay protocol E (compound 9.19 μM-150 pM)

EC50 [1]	Ki (BRD4 (BDII_E352-M457); [3])	Ki (BRD4 (BDI_K57-E168); [3])	Ki (BRD4 (BDII_E352-M457); [4])	Ki (BRD4 (BDI_K57-E168); [4])	Compound	% inhibition of LPS induced IL-6 production ([2]; mouse strain CD1)	% inhibition of LPS induced IL-6 production ([2]; mouse strain SCID)
1.41 nM	0.51 nM	0.96 nM			4-(2,4-difluorophenyl)-10-methyl-7-((methylsulfonyl)methyl)-11-oxo-3,4,10,11-tetrahydro-1H-1,4,10-triazadibenzo[cd,f]azulene-5-carbonitrile [Example 206]	76%	
1.27 nM			1.01 nM	1.19 nM	4-((4,4-difluorocyclohexyl)methyl)-10-methyl-7-((methylsulfonyl)methyl)-3,4-dihydro-1H-1,4,10-triazadibenzo[cd,f]azulen-11(10H)-one [Example 27]		79%
1.03 nM			2.74 nM	6.95 nM	10-methyl-7-((methylsulfonyl)methyl)-4-((tetrahydro-2H-pyran-3-yl)methyl)-3,4-dihydro-1H-1,4,10-triazadibenzo[cd,f]azulen-11(10H)-one [Example 29]		76%
2.13 nM	1.02 nM	0.43 nM			Cn1cc2c3c(c[nH]c3c1=O)CN(c1cccnc1)c1ccc(CS(C)(=O)=O)cc1-2 [Example 244, 10-methyl-7-((methylsulfonyl)methyl)-4-(pyridin-3-yl)-3,4-dihydro-1H-1,4,10-triazadibenzo[cd,f]azulen-11(10H)-one]		
1.09 nM	0.94 nM	0.54 nM			Cn1cc2c3c(c[nH]c3c1=O)CN(c1ccc(Cl)cn1)c1ccc(CS(C)(=O)=O)cc1-2 [Example 245, 4-(5-chloropyridin-2-yl)-10-methyl-7-((methylsulfonyl)methyl)-3,4-dihydro-1H-1,4,10-triazadibenzo[cd,f]azulen-11(10H)-one]		
4.94 nM	2.42 nM	2.22 nM			Cn1cc2c3c(c[nH]c3c1=O)CN(Cc1ccccc1)c1ccc(CS(C)(=O)=O)cc1-2 [Example 247, 4-benzyl-10-methyl-7-((methylsulfonyl)methyl)-3,4-dihydro-1H-1,4,10-triazadibenzo[cd,f]azulen-11(10H)-one]		
25.6 nM	3.29 nM	3.39 nM			Cn1cc2c3c(c[nH]c3c1=O)CN(c1cncnc1)c1ccc(CS(C)(=O)=O)cc1-2 [Example 248, 10-methyl-7-((methylsulfonyl)methyl)-4-(pyrimidin-5-yl)-3,4-dihydro-1H-1,4,10-triazadibenzo[cd,f]azulen-11(10H)-one]		
17.7 nM	19.1 nM	6.1 nM			Cn1cc2c3c(c[nH]c3c1=O)CN(Cc1ccccn1)c1ccc(CS(C)(=O)=O)cc1-2 [Example 249, 10-methyl-7-((methylsulfonyl)methyl)-4-(pyridin-2-ylmethyl)-3,4-dihydro-1H-1,4,10-triazadibenzo[cd,f]azulen-11(10H)-one]		
845 nM	22.5 nM	8.8 nM			Cn1cc2c3c(c[nH]c3c1=O)CN(Cc1cccnn1)c1ccc(CS(C)(=O)=O)cc1-2 [Example 250, 10-methyl-7-((methylsulfonyl)methyl)-4-(pyridazin-3-ylmethyl)-3,4-dihydro-1H-1,4,10-triazadibenzo[cd,f]azulen-11(10H)-one]		
1.3 nM	1.18 nM	0.7 nM			Cn1cc2c3c(c[nH]c3c1=O)CN(c1ccc(C(F)(F)F)cn1)c1ccc(CS(C)(=O)=O)cc1-2 [Example 253, 10-methyl-7-((methylsulfonyl)methyl)-4-(5-(trifluoromethyl)pyridin-2-yl)-3,4-dihydro-1H-1,4,10-triazadibenzo[cd,f]azulen-11(10H)-one]		
34.3 nM	7.33 nM	4.53 nM			Cn1ccc(CN2Cc3c[nH]c4c(=O)n(C)cc(c34)-c3cc(CS(C)(=O)=O)ccc32)n1 [Example 255, 10-methyl-4-((1-methyl-1H-pyrazol-3-yl)methyl)-7-((methylsulfonyl)methyl)-3,4-dihydro-1H-1,4,10-triazadibenzo[cd,f]azulen-11(10H)-one]		
21.1 nM	9.19 nM	2.34 nM			Cn1cc2c3c(c[nH]c3c1=O)CN(CC(C)(C)CN1CCOCC1)c1ccc(CS(C)(=O)=O)cc1-2 [Example 257, 4-(2,2-dimethyl-3-morpholinopropyl)-10-methyl-7-((methylsulfonyl)methyl)-3,4-dihydro-1H-1,4,10-triazadibenzo[cd,f]azulen-11(10H)-one]		
4.43 nM	2.39 nM	0.92 nM			Cn1cc2c3c(c[nH]c3c1=O)CN(c1ncc(F)cn1)c1ccc(CS(C)(=O)=O)cc1-2 [Example 258, 4-(5-fluoropyrimidin-2-yl)-10-methyl-7-((methylsulfonyl)methyl)-3,4-dihydro-1H-1,4,10-triazadibenzo[cd,f]azulen-11(10H)-one]		
> 1000 nM	8.07 nM	7.04 nM			Cn1cc2c3c(c(C(=O)O)[nH]c3c1=O)CN(c1ccc(F)cc1F)c1ccc(CS(C)(=O)=O)cc1-2 [Example 263, 4-(2,4-difluorophenyl)-10-methyl-7-((methylsulfonyl)methyl)-11-oxo-3,4,10,11-tetrahydro-1H-1,4,10-triazadibenzo[cd,f]azulene-2-carboxylic acid]		
899 nM	1.53 nM	6.97 nM			Cn1cc2c3c(c[nH]c3c1=O)CN(Cc1ccccc1OCc1ccccn1)c1ccc(CS(C)(=O)=O)cc1-2 [Example 264, 10-methyl-7-((methylsulfonyl)methyl)-4-(2-(pyridin-2-ylmethoxy)benzyl)-3,4-dihydro-1H-1,4,10-triazadibenzo[cd,f]azulen-11(10H)-one]		
170 nM	4.21 nM	25.6 nM			CCS(=O)(=O)c1ccc2c(c1)-c1cn(C)c(=O)c3[nH]cc(c13)CN2[C@H](C)c1ccccc1 [Example 265, (R)-7-(ethylsulfonyl)-10-methyl-4-(1-phenylethyl)-3,4-dihydro-1H-1,4,10-triazadibenzo[cd,f]azulen-11(10H)-one]		
80.7 nM	3.35 nM	11 nM			Cn1cc(-c2[nH]c3c(=O)n(C)cc4c3c2CN(c2ccc(F)cc2F)c2ccc(S(C)(=O)=O)cc2-4)cn1 [Example 270, 4-(2,4-difluorophenyl)-10-methyl-2-(1-methyl-1H-pyrazol-4-yl)-7-(methylsulfonyl)-3,4-dihydro-1H-1,4,10-triazadibenzo[cd,f]azulen-11(10H)-one]		
1.71 nM	0.95 nM	0.875 nM			N-(4-(4-fluorophenyl)-10-methyl-11-oxo-3,4,10,11-tetrahydro-1H-1,4,5,10-tetraazadibenzo[cd,f]azulen-7-yl)ethanesulfonamide [Example 22]		
331 nM	95.1 nM	35.5 nM			tert-butyl 4-(4-(4-fluorophenyl)-10-methyl-7-((methylsulfonyl)methyl)-11-oxo-3,4,10,11-tetrahydro-1H-1,4,10-triazadibenzo[cd,f]azulene-3-carbonyl)piperazine-1-carboxylate [Example 35]		

Compound	EC50 [1]	Ki (BRD4 (BDII_E352-M457); [3])	Ki (BRD4 (BDI_K57-E168); [3])	Ki (BRD4 (BDII_E352-M457); [4])	Ki (BRD4 (BDI_K57-E168); [4])	% inhibition of LPS induced IL-6 production ([2]; mouse strain CD1)	% inhibition of LPS induced IL-6 production ([2]; mouse strain SCID)
4-(cyclopropylmethyl)-10-methyl-7-((methylsulfonyl)methyl)-3,4-dihydro-1H-1,4,10-triazadibenzo[cd,f]azulen-11(10H)-one [Example 6]	2.01 nM			1.71 nM	1.08 nM		64%
5,7-difluoro-10-methyl-4-((tetrahydrofuran-3-yl)methyl)-3,4-dihydro-1H-1,4,10-triazadibenzo[cd,f]azulen-11(10H)-one [Example 42]	5.44 nM	2.03 nM	1.56 nM			86%	
Cn1cc2c3c(c[nH]c3c1=O)CN(C(C#N)c1ccccc1)c1ccc(CS(C)(=O)=O)cc1-2 (centres unmarked) [Example 261]	> 1000 nM	7.78 nM	9.32 nM				
